# Measured values reported in US6699834B1, “Method for treating cancer” (University of Maryland Biotechnology Institute, priority 1997, dated 2004).
# Bridge positions count the residues as written; N and C are the ends. Ends that are not written are not given here.
# What was measured:
# [1] = test system: KS Y-1 and KS-SLK cells; test: Kaposi's Sarcoma clonogenic assay in cultured cells; format: cell-based, human; details: for inhibition of KS cell growth in clonogenic assays (in words): KS Y-1 and KS SLK; for KS in vitro: inhibition of Kaposi's Sarcoma cell growth in vitro in cultured cells
# Protocol: Briefly, the KS Y-1 cells were obtained from mononuclear cells isolated from pleural effusion of an AIDS patient with KS in the lungs. After the depletion of T lymphocytes, monocytes/macrophages and fibroblasts using monoclonal antibodies against CD2, CD3, CD4, CD8, CD10 and CD14 membrane antigens and baby rabbit complement, the cells were cultured in the absence of exogenous growth factors to select for transformed cells. […] Clonogenic assays were performed by seeding the KS Y-1 or KS-SLK cells in methylcellulose (0.8%, v/v), incubating the cells for 10 days in the presence or absence of the hCC, β-hCG or β-hCG peptide preparations and then counting the number of well-formed colonies of triplicate wells formed after seeding with 5×10^4 cells.
# To assay for activity against Kaposi's sarcoma cell growth in vitro, the clonogenic assay described herein was used with the KS Y-1 and KS-SLK cultured Kaposi's Sarcoma cell lines,.
# [2] = test system: Kaposi's Sarcoma induced in mice; test: Kaposi's Sarcoma tumors induced in mice by KS Y-1 cells; format: in vivo; details: for KS in vivo: inhibition of Kaposi's Sarcoma induced in mice; for effect on KS tumors in mice (in words): mouse, in vivo
# Protocol: The effects of the peptides on KS tumor cells were also evaluated in vivo in the KS mouse model. To induce KS tumors in the mice, 1×10^6/ml KS Y-1 cells in 50 μl PBS or saline were injected subcutaneously into immunodeficient mice (beige-XID-BNX mice). […] Methods for detection of apoptosis (from tissue biopsies) were used, as described in Lunardi-Iskandar et al.(1995, Nature 375:64-68). Briefly, the samples were stained in situ for the presence of cells with DNA fragmentation. Tissue slides from formalin-fixed tumors were treated with terminal deoxynucleotide transferase for extension of DNA ends (hydroxyl 3′) and incorporation of digoxigenin-11-dUTP according to the manufacturer's instructions (Oncor, Gaithersburg, Md.). Anti-digoxigenin antibody conjugated with the enzyme peroxidase allowed detection of apoptotic cells, which stain brown, whereas viable cells stain blue.
# Certain fractions were tested for activity in reducing Kaposi's Sarcoma lesions in the Kaposi's Sarcoma mouse model as described herein. In this assay, starting one week after injection of the KS Y-1 cells to induce Kaposi's sarcoma formation, the mice were injected subcutaneously with 100 IU hCG. […] After one week of the week of treatment with the hCG fractions, the KS lesions were examined for cell apoptosis and regression as described herein.
# Certain fractions of the APL™ hCG and early pregnancy urine were assayed for their ability to elicit apoptosis in Kaposi's Sarcoma lesions induced by injection of KS Y-1 cells in mice (n=3 mice for each treatment). The mice were administered 100 μl subcutaneously of the particular fraction each day for one week.
# [3] = test system: hematopoietic progenitor cells; test: Hematopoietic progenitor clonogenic assays (CFU-GEMM, BFU-e, CFU-GM); format: cell-based, human; details: for Pro-hematopoiesis in vitro Enhancement: relative increase of hematopoietic colony cell number, hCG preparations 200 IU/ml, subunits and peptides 100 μg/ml
# Protocol: The effect of hCG preparations and peptides was assayed on hematopoietic progenitor cells in vitro: Hematopoietic progenitor cells (2×10^5 cell/ml) were isolated from normal bone marrow and cord blood and seeded in methylcellulose. […] The hCG preparations were administered at 200 IU/ml and the β- and α-subunits and peptides were administered at 100 μg/ml. The native commercial preparation of hCG (APL™, Wyeth Ayerst) was pre-tested for anti-HIV and anti-KS activities. Aggregates containing more than 50 cells after 10 days of culture were counted as colonies.
# [4] = test system: HIV-1; details: for HIV in vitro Inhibition: inhibition of HIV-1 replication in vitro (HIV-1 strains and HIV-1 primary isolates)
# Source text: To prepare HIV infected cells for the in vitro assay of hCG preparations and β-hCG peptides and derivatives, primary PBMCs, macrophages, and CD4^+ T cells isolated from peripheral blood and the H9 human T cell line, were acutely or chronically infected with 8 different HIV-1 strains: 4 cell line adapted viruses, namely the macrophage tropic Ba-L strain (Gartner et al., 1986, Science 233:215-219) and the CD4^+ T cell tropic MN, RF, and IIIB strains (10^5 TCID50/ml) (Popovic et al., 1984, Science […]; Gallo et al.; 1984, Science 224:500-503); 2 isolates, Ju1083 and G3, from Nigerian AIDS patients passed once in a CD4^+ T cell line (Sub-T1); and 2 primary (“clinical”) isolates from AIDS patients from Trinidad which were never passed in any cell line and were used at a titer of 7.5×10^4TCID50/ml. In all experiments; HIV1 (10^5 TCID50/ml) was added to the cells(10^6 cells/ml) for a 2 hour incubation after which the virus infected cells were washed with 10 ml phosphate buffered saline (PBS) three times to eliminate extra cellular virus. The test inhibitor, i.e. the hCG or β-hCG peptide preparation was then added and the cells were incubated with the test inhibiter for 9 to 10 days with serial sampling. Cultures were assayed for p24 antigen on days 3 to 10.
# Peptides of the α- and β-subunits (0.05 to 50 nmoles/ml), native α chain preparation, and various crude preparations of the native hCG heterodimer (0.01 to 1,000 IU) and the native β-hCG subunit (100 to 1,000 μg) were tested for effects on HIV-1 replication in acutely infected cells-by measuring change in viral antigen levels in response to the above noted preparations (FIGS. 4A-D and Table 3).
# The fractions were then tested for anti-HIV, anti-KS and pro-hematopoietic activities in vitro. To assay for inhibition of HIV-1 replication in vitro, the HIV-1 […] viral strain was used to infect PBMCs and PM-1 cells (derived from the HUT-78 T-cell lymphoma cell line) at 10^3 TCID50/ml as described in detail herein.
# [5] = test system: HIV RNA and protein expression; test: HIV RNA and protein expression in HIV-1 transgenic mice; format: in vivo; details: for inhibition of HIV RNA and protein expression: inhibition of HIV RNA and protein expression in HIV-1 transgenic mice; for HIV-1 gene / protein expression in transgenic mice (in words): pups dosed via mother's milk
# Source text: The HIV-1 transgenic mice used for this study contain 7.4 kb of foreign DNA, including 5.1 kb of the HIV-1 proviral genome deleted in the gag and pol genes and 2.3 kb of vector (Dickie et al., 1991, Virology 185:109-119). […] In addition, these mice develop severe hyperkeratotic skin lesions with marked expression of gp 120 and nef genes (Kopp et al., 1993, AIDS Res. Hum. Retroviruses 9:267-275; Vasli et al., 1994, AIDS Res. Hum. Retroviruses 10:1241-1250).
# Heterozygous transgenic mothers were treated with the hCG preparation subcutaneously twice weekly. Pups received hCG via the mother's milk.
# Gene expression was assayed in total RNA extracted from the skin of Tg26 mice with RNAzol. One microgram of RNA was reverse transcribed into cDNA using random hexamer primers and […] reverse transcriptase (Life Technologies, MD) in a final volume of 30 μl. One tenth of the cDNA reactions were used for PCR amplification of various HIV gene sequences (env, tat, rev, nef and vif). In addition, glyceraldehyde 3-phosphate dehydrogenase (GAPHD) mRNA was amplified for each sample for normalization. Following 25 cycles of amplification, 10% of the PCR product was resolved by electrophoresis through 2% agarose gels and processed for Southern hybridization using FITC-labeled oligonucleotide probes complimentary to internal sequences of the amplicons. Detection was performed by chemiluminescence (Amersham) and relative mRNA levels determined by densitometry after normalization with GAPDH mRNA levels.
# Finally, certain fractions were tested for their ability to increase survival, promote weight gain and reduce HIV-1 gene expression in HIV-1 transgenic mice as described herein.
Substance,inhibition of KS cell growth in clonogenic assays (in words) [1],KS in vitro [1],KS in vivo [2],effect on KS tumors in mice (in words) [2],promotion of hematopoiesis (in words) [3],Pro-hematopoiesis in vitro Enhancement [3],inhibition of HIV-1 infection/replication in vitro (in words) [4],HIV in vitro Inhibition [4],inhibition of HIV RNA and protein expression [5],HIV-1 gene / protein expression in transgenic mice (in words) [5]
1. 109-119: β-hCG amino acids 109-119 (SEQ ID NO:7) (TCDDPRFQDSS),strongest anti-tumor effects,+ (“+” represents greater than 15% effect),+ (“+” represents greater than 15% effect),some anti-KS activity,directly promoted,+ (“+” represents greater than 15% effect),inhibit HIV-1 replication in vitro,+ (“+” represents greater than 15% effect),–,–
2. 109-145: β-hCG amino acids 109-145 (SEQ ID NO:25) (TCDDPRFQDSSSSKAPPPSLPSPSRLPGPSDTPILPQ),strongest anti-tumor effects,+ (“+” represents greater than 15% effect),+ (“+” represents greater than 15% effect),some anti-KS activity,–,+ (“+” represents greater than 15% effect),inhibited HIV-1 replication,+ (“+” represents greater than 15% effect),–,–
5. 47-57::108-119: β-hCG 47-57 linked at the C-terminus to the N-terminus of 108-119 (SEQ ID NO:32) (GVLPALPQVVCLTCDDPRFQDSS),strongest anti-tumor effects,++ (“++” represents greater than 40% effect),+++ (“+++” represents greater than 70% effect),significant anti-KS activity,–,–,inhibit HIV-1 replication in vitro,++ (“++” represents greater than 40% effect),++ (“++” represents greater than 40% effect),–
8. 41-54: β-hCG amino acids 41-54 (SEQ ID NO:3) (MTRVLQGVLPALPQ),–,− (“−” represents less than 10% effect),− (“−” represents less than 10% effect),–,–,− (“−” represents less than 10% effect),–,− (“−” represents less than 10% effect),− (“−” represents less than 10% effect),–
"9. 38-57: β-hCG amino acids 38-57 (CPTMTRVLQGVLPALPQVVC; UniProt P0DN86 58-77, looked up, fragment)",–,− (“−” represents less than 10% effect),− (“−” represents less than 10% effect),–,–,− (“−” represents less than 10% effect),–,− (“−” represents less than 10% effect),–,–
"13. 6-16: β-hCG amino acids 6-16 (RPRCRPINATL; UniProt P0DN86 26-36, looked up, fragment)",–,− (“−” represents less than 10% effect),− (“−” represents less than 10% effect),–,–,− (“−” represents less than 10% effect),–,− (“−” represents less than 10% effect),− (“−” represents less than 10% effect),–
"30. 37-55: β-hCG amino acids 37-55 as printed; probably 47-55 (YCPTMTRVLQGVLPALPQV; UniProt P0DN86 57-75, looked up, fragment)",–,+ (“+” represents greater than 15% effect),+ (“+” represents greater than 15% effect),–,–,+ (“+” represents greater than 15% effect),–,+ (“+” represents greater than 15% effect),+ (“+” represents greater than 15% effect),–
"35. 1-15: α-hCG amino acids 1-15 (APDVQDCPECTLQEN; UniProt P01215 25-39, looked up, fragment)",–,− (“−” represents less than 10% effect),− (“−” represents less than 10% effect),–,–,− (“−” represents less than 10% effect),–,–,–,–
47-55: β-hCG amino acids 47-55 (SEQ ID NO:20) (GVLPALPQV),–,–,–,some anti-KS activity,pro-hematopoietic effect,–,inhibited HIV-1 replication,–,–,elicited inhibition
CVAQPGPQVLLVLC (cysteine pairing not given here) [11. Scrambled 45-57],exhibited activity,++ (“++” represents greater than 40% effect),–,–,–,–,inhibitory effect,++ (“++” represents greater than 40% effect),–,some inhibition
Cys-Val-Ala-Gln-Gly-Val-Leu-Pro-Ala-Leu-Pro-Gln-Val-Val-Cys (CVAQGVLPALPQVVC; disulfide 1-15 (inferred)) [12. Scrambled circ. 44-57],–,− (“−” represents less than 10% effect),–,–,–,− (“−” represents less than 10% effect),–,− (“−” represents less than 10% effect),–,no inhibitory effect
